“Also recorded” adds a separate entry of the source.

One data set concerns cerebral artery SMCs. The experiment in a line: Membrane potential recordings in pressurized cerebral arteries. It is filed as cell-based, rat. Particulars: for resting membrane potential (Vm): before UTP; for pressure-induced depolarization of arterial SMCs: intravascular pressure increased from 20 to 80 mm Hg. From the text: Oligodeoxynucleotide Sequences and Reverse Permeabilization. TRPC6 sense and antisense oligodeoxynucleotides (ODN's) were designed as previously described (Welsh et al 2002 Circ Res 90, 248-250) and were as follows: sense, 5′-[…]-3′ (SEQ ID: 3) and 5′-GCACACGCAGCCTCTTCAC-3′ (SEQ ID: 4) antisense, 5′-[…]-3′ (SEQ ID: 5) and 5′-[…]-3′ (SEQ ID: 6). TRPC3 sense and antisense ODN's were designed based on the rat TRPC3 gene (Ohki et al 2000 J Biol Chem 275: 39055-39060) and are as follows: sense, 5′-[…]-3′ (SEQ ID: 7) and 5′-[…]-3′ (SEQ ID: 8); anti-sense, 5′-[…]-3′ (SEQ ID: 9) and 5′-[…]-3′ (SEQ ID: 10). The last five bases on the 5′ and 3′ end were phosphorothioated in order to limit ODN degradation. For some experiments fluoroscein-isothiocyanate was conjugated to the 5′ end to allow for histological assessment of cellular uptake of the ODNs. All ODNs were synthesized and HPLC purified commercially by Qiagen (Alameda, Calif., USA). Sense and antisense ODN's (2 μM) were introduced into the arterial SMs using a reversible permeabilization procedure (Lesh et al 1995 Circ Res 77,220-230)). The arterial segments were then organ cultured for 3 days in D-MEM/F-12 culture media with L-glutamine (2 mM), penicillin (50 units/ml) and streptomycin (50 μg/ml) prior to use.
Diameter and membrane potential recordings. Endothelial cell denuded artery segments were mounted on glass pipettes in an arteriograph chamber (Living Systems, Burlington, Vt., USA), pressurized to 20 mmHg (with no flow), and superfused with warm (37° C.), gassed (95% 02/5% CO2) physiological saline solution (PSS) containing (in mM): 119 NaCl, 4.7 KCl, 24 NaHCO3, 0.2 KH2PO4, […], 1.2 MgSO4, 1.6 CaCl2, and 10.6 glucose, pH 7.4. In experiments using Ca^2+-free PSS, CaCl2 was omitted and 3 mM EGTA and 30 μM diltiazem added. In experiments with diacylglycerol induction, 300 μM of the diacylglycerol analogue OAG (1-oleyol-2-acetyl-sn-glycerol) was added. The endothelium was removed as previously described (Sun et al 1993 Endothelium 1, 115-122). To verify endothelial cell removal the arteries were pressurized to 60 mmHg and allowed to develop myogenic tone prior to exposing the vessels to 1 μM UTP. Absence of a dilation or biphasic constrictor response to 1 μM UTP indicated successful endothelial cell removal (Marelli 2001 Am J Physiol Heart Cir Physiol 281, H1759-H1766; Miyagi et al 1996 Br J Pharmacol 118, 847-856). Arterial diameter or membrane potential (Vm) of sense and anti-sense treated arteries was measured in the absence (control) or presence of UTP (concentration range: 0.1 to 10 μM). Membrane potential was measured by inserting a sharp glass electrode (≈100 MΩ resistance) containing 0.5M KCl into the vessel wall. The criteria for successful vascular smooth muscle cell impalement were: (1) a sharp negative Vm deflection on entry; (2) a stable potential for at least 1 minute after entry; and (3) a sharp positive Vm deflection upon removal. Measurements were made using an electrometer (World Precision Instruments) and the data were recorded via computer using Axotape and Dataq software. Arterial diameter was measured using a video dimension analyzer (IonOptix Corporation; Milton, Mass.).

Data set [1] deals with pressurized rat cerebral arteries. The experiment in a line: Arterial wall Ca2+ concentration measurement (FURA-2) in isolated arteries. The data set is classed as cell-based. Particulars: for change in arterial wall Ca2+: Ca2+ returned to superfusate in the presence of UTP and nimodipine. The protocol:
Diameter and membrane potential recordings. […] In experiments using Ca^2+-free PSS, CaCl2 was omitted and 3 mM EGTA and 30 μM diltiazem added. In experiments with diacylglycerol induction, 300 μM of the diacylglycerol analogue OAG (1-oleyol-2-acetyl-sn-glycerol) was added. […] To verify endothelial cell removal the arteries were pressurized to 60 mmHg and allowed to develop myogenic tone prior to exposing the vessels to 1 μM UTP. […] Arterial diameter or membrane potential (Vm) of sense and anti-sense treated arteries was measured in the absence (control) or presence of UTP (concentration range: 0.1 to 10 μM). Membrane potential was measured by inserting a sharp glass electrode (≈100 MΩ resistance) containing 0.5M KCl into the vessel wall. […] Measurements were made using an electrometer (World Precision Instruments) and the data were recorded via computer using Axotape and Dataq software. Arterial diameter was measured using a video dimension analyzer (IonOptix Corporation; Milton, Mass.).
Ca^2+ concentration measurement in isolated arteries. Mounted arteries were equilibrated in 1.6 m M PSS for 40 minutes at 37° C. (pH 7.4) prior to loading the vascular smooth muscle cells with the Ca^2+-sensitive fluorescent dye, FURA-2. To load the cells, the 1.6 mM PSS was gradually replaced over 5 minutes with HEPES solution (25° C., pH 7.4). A total of 40 μL of a premixed 100 μM FURA-2-acetoxymethyl ester solution (100 μg FURA-2, 200 μL Pluronic acid, 800 μL DMSO) was added directly to the HEPES to give a final concentration of 2 μM FURA-2 AM. Loading continued in the dark at 25° C. (pH 7.4) for 40 minutes. At the end of the loading period, the HEPES was replaced with 1.6 mM PSS (35° C., pH 7.4) and 30 minutes was allowed for complete de-esterification of the FURA-2 AM before [Ca^2+]c measurements were made. FURA-2 fluorescence was measured using a photomultiplier system (IonOptix Corporation; Milton, Mass., USA) in which background-corrected ratios of the 510-nm emission from arteries alternatively excited at 340 and 380 nm were obtained at a sampling rate of 5 Hz.

Take “5′-GAGAACCATGAACTGGAATA-3′ (SEQ ID: 9) and 5′-ACGACCAACACGACCAGACA-3′ (SEQ ID: 10) (phosphorothioate ends, further chemistry not given here) [TRPC3 antisense, antisense ODNs based on the rat TRPC3 gene; last five bases on the 5′ and 3′ end phosphorothioated]”: the “UTP-induced depolarization of SMCs versus sense-treated arteries” value with cerebral artery SMCs (all UTP concentrations tested) was “significantly less; also recorded: significantly reduced”. Besides, in the data set with cerebral artery SMCs, the “resting membrane potential (Vm)” value is listed as −49±2 mV and the “pressure-induced depolarization of arterial SMCs” value is 14±1 mV. For the same substance, the “increase in arterial wall Ca2+” value in data set [1] (300 μM OAG) came out at 6 ± 2 nM. Further, the “change in arterial wall Ca2+” value in data set [1] was determined as 50 ± 12 nM.

Consider “5′-TATTCCAGTTCATGGTTCTC-3′ (SEQ ID: 7) and 5′-TGTCTGGTCGTGTTGGTCGT-3′ (SEQ ID: 8) (phosphorothioate ends, further chemistry not given here) [TRPC3 sense, sense control ODNs based on the rat TRPC3 gene; end bases phosphorothioated]”, for which, in the data set on cerebral artery SMCs, the “resting membrane potential (Vm)” value was −50±1 mV and the “pressure-induced depolarization of arterial SMCs” value is listed as 14±1 mV. Further, the “change in arterial wall Ca2+” value in data set [1] is 100 ± 22 nM.

(Values after patent US20060217340A1, “Methods and products for treating hypertension by modulation of TRPC3 channel activity” (University of Vermont and State Agricultural College, priority 2005, published 2006).)
